Legend:
[1] = Survival of human MDA-MB cells at 50 uM under deem light after 96 hrs by MTT assay relative to control; assay type: functional; conditions: read-out: Survival
[2] = tested on: HeLa; experiment: Survival of human HeLa cells at 0.1 uM under deem light after 96 hrs by MTT assay relative to control; assay type: functional; conditions: read-out: Survival
[3] = tested on: NCI-H69; experiment: Survival of human H69 cells at 0.1 uM under deem light after 96 hrs by MTT assay relative to control; assay type: functional; conditions: NCI-H69, 96 h, read-out: Survival
[4] = tested on: SiHa; experiment: Survival of human SIHA cells at 10 uM under deem light after 96 hrs by MTT assay relative to control; assay type: functional; conditions: read-out: Survival
[5] = Photohemolysis in human RBC at 190 nM under exposure to light for 10 mins; assay type: ADME, cell-based, Erythrocyte; conditions: human red blood cells, read-out: Activity
[6] = tested on: NCI-H69; experiment: Cytotoxicity against human H69 cells under deem light after 96 hrs by MTT assay; assay type: functional, cell-based; conditions: NCI-H69, 96 h
[7] = Survival of human MDA-MB cells at 0.1 uM under deem light after 96 hrs by MTT assay relative to control; assay type: functional; conditions: read-out: Survival
[8] = tested on: K562; experiment: Survival of human K562 cells at 10 uM under deem light after 96 hrs by MTT assay relative to control; assay type: functional; conditions: K562, 96 h, read-out: Survival
[9] = Survival of human 2780.9S cells at 50 uM under deem light after 96 hrs by MTT assay relative to control; assay type: functional; conditions: read-out: Survival
[10] = Survival of human MDA-MB cells at 1 uM under deem light after 96 hrs by MTT assay relative to control; assay type: functional; conditions: read-out: Survival
[11] = tested on: Raji; experiment: Survival of human Raji cells at 10 uM under deem light after 96 hrs by MTT assay relative to control; assay type: functional; conditions: read-out: Survival
[12] = Survival of human 2780.9S cells at 1 uM under deem light after 96 hrs by MTT assay relative to control; assay type: functional; conditions: read-out: Survival
[13] = Survival of human H209 cells at 10 uM under deem light after 96 hrs by MTT assay relative to control; assay type: functional; conditions: NCI-H209, 96 h, read-out: Survival
[14] = tested on: K562; experiment: Survival of human K562 cells at 0.1 uM under deem light after 96 hrs by MTT assay relative to control; assay type: functional; conditions: K562, 96 h, read-out: Survival
[15] = Survival of human 2780.9S cells at 10 uM under deem light after 96 hrs by MTT assay relative to control; assay type: functional; conditions: read-out: Survival
[16] = tested on: SiHa; experiment: Survival of human SIHA cells at 100 uM under deem light after 96 hrs by MTT assay relative to control; assay type: functional; conditions: read-out: Survival
[17] = Photohemolysis in human RBC at 250 nM in absence of light; assay type: ADME, cell-based, Erythrocyte; conditions: human red blood cells, read-out: Activity
[18] = Survival of human H209 cells at 100 uM under deem light after 96 hrs by MTT assay relative to control; assay type: functional; conditions: NCI-H209, 96 h, read-out: Survival
[19] = tested on: K562; experiment: Survival of human K562 cells at 1 uM under deem light after 96 hrs by MTT assay relative to control; assay type: functional; conditions: K562, 96 h, read-out: Survival
[20] = tested on: NCI-H69; experiment: Survival of human H69 cells at 100 uM under deem light after 96 hrs by MTT assay relative to control; assay type: functional; conditions: NCI-H69, 96 h, read-out: Survival
[21] = Survival of human H209 cells at 50 uM under deem light after 96 hrs by MTT assay relative to control; assay type: functional; conditions: NCI-H209, 96 h, read-out: Survival
[22] = Photohemolysis in human RBC assessed as concentration required to 50% hemolysis under light exposure for 5 mins; assay type: ADME, cell-based, Erythrocyte; conditions: human red blood cells, read-out: Activity
[23] = tested on: K562; experiment: Cytotoxicity against human K562 cells under deem light after 96 hrs by MTT assay; assay type: functional, cell-based; conditions: K562, 96 h
[24] = tested on: K562; experiment: Survival of human K562 cells at 100 uM under deem light after 96 hrs by MTT assay relative to control; assay type: functional; conditions: K562, 96 h, read-out: Survival
[25] = tested on: SiHa; experiment: Survival of human SIHA cells at 50 uM under deem light after 96 hrs by MTT assay relative to control; assay type: functional; conditions: read-out: Survival
[26] = Survival of human MDA-MB cells at 10 uM under deem light after 96 hrs by MTT assay relative to control; assay type: functional; conditions: read-out: Survival
[27] = tested on: Raji; experiment: Survival of human Raji cells at 50 uM under deem light after 96 hrs by MTT assay relative to control; assay type: functional; conditions: read-out: Survival
[28] = Survival of human H209 cells at 1 uM under deem light after 96 hrs by MTT assay relative to control; assay type: functional; conditions: NCI-H209, 96 h, read-out: Survival
[29] = Cytotoxicity against human MDA-MB cells under deem light after 96 hrs by MTT assay; assay type: functional, cell-based
[30] = tested on: K562; experiment: Survival of human K562 cells at 50 uM under deem light after 96 hrs by MTT assay relative to control; assay type: functional; conditions: K562, 96 h, read-out: Survival
[31] = tested on: Daudi; experiment: Cytotoxicity against human Daudi cells under deem light after 96 hrs by MTT assay; assay type: functional, cell-based
[32] = tested on: Raji; experiment: Survival of human Raji cells at 1 uM under deem light after 96 hrs by MTT assay relative to control; assay type: functional; conditions: read-out: Survival
[33] = Photohemolysis in human RBC assessed as concentration required to 50% hemolysis under light exposure for 10 mins; assay type: ADME, cell-based, Erythrocyte; conditions: human red blood cells, read-out: Activity
[34] = tested on: SiHa; experiment: Survival of human SIHA cells at 1 uM under deem light after 96 hrs by MTT assay relative to control; assay type: functional; conditions: read-out: Survival
[35] = tested on: HeLa; experiment: Cytotoxicity against human HeLa cells under deem light after 96 hrs by MTT assay; assay type: functional, cell-based
[36] = tested on: Raji; experiment: Cytotoxicity against human Raji cells under deem light after 96 hrs by MTT assay; assay type: functional, cell-based
[37] = tested on: HeLa; experiment: Survival of human HeLa cells at 100 uM under deem light after 96 hrs by MTT assay relative to control; assay type: functional; conditions: read-out: Survival
[38] = tested on: Raji; experiment: Survival of human Raji cells at 100 uM under deem light after 96 hrs by MTT assay relative to control; assay type: functional; conditions: read-out: Survival
[39] = Survival of human MDA-MB cells at 100 uM under deem light after 96 hrs by MTT assay relative to control; assay type: functional; conditions: read-out: Survival
[40] = tested on: Raji; experiment: Survival of human Raji cells at 0.1 uM under deem light after 96 hrs by MTT assay relative to control; assay type: functional; conditions: read-out: Survival
[41] = tested on: HeLa; experiment: Survival of human HeLa cells at 50 uM under deem light after 96 hrs by MTT assay relative to control; assay type: functional; conditions: read-out: Survival
[42] = tested on: NCI-H69; experiment: Survival of human H69 cells at 50 uM under deem light after 96 hrs by MTT assay relative to control; assay type: functional; conditions: NCI-H69, 96 h, read-out: Survival
[43] = tested on: NCI-H69; experiment: Survival of human H69 cells at 1 uM under deem light after 96 hrs by MTT assay relative to control; assay type: functional; conditions: NCI-H69, 96 h, read-out: Survival
[44] = Survival of human H209 cells at 0.1 uM under deem light after 96 hrs by MTT assay relative to control; assay type: functional; conditions: NCI-H209, 96 h, read-out: Survival
[45] = tested on: HeLa; experiment: Survival of human HeLa cells at 10 uM under deem light after 96 hrs by MTT assay relative to control; assay type: functional; conditions: read-out: Survival
[46] = Survival of human 2780.9S cells at 100 uM under deem light after 96 hrs by MTT assay relative to control; assay type: functional; conditions: read-out: Survival
[47] = Survival of human 2780.9S cells at 0.1 uM under deem light after 96 hrs by MTT assay relative to control; assay type: functional; conditions: read-out: Survival
[48] = tested on: NCI-H69; experiment: Survival of human H69 cells at 10 uM under deem light after 96 hrs by MTT assay relative to control; assay type: functional; conditions: NCI-H69, 96 h, read-out: Survival
[49] = Cytotoxicity against human 2780.9S cells under deem light after 96 hrs by MTT assay; assay type: functional, cell-based
[50] = tested on: HeLa; experiment: Survival of human HeLa cells at 1 uM under deem light after 96 hrs by MTT assay relative to control; assay type: functional; conditions: read-out: Survival
[51] = tested on: SiHa; experiment: Cytotoxicity against human SIHA cells under deem light after 96 hrs by MTT assay; assay type: functional, cell-based

For `C=Cc1c(C)c2cc3nc(c(CC(=O)OC)c4[nH]c(cc5nc(cc1[nH]2)C(C)=C5CC)c(C)c4C(=O)NCCO)C(CCC(=O)OC)C3C` (stereo unspecified) [PHEOPHORBIDE A ETHANOLAMIDE], the viability at 50 µM [1] was 1.6%, the viability at 0.1 µM [2] was 126% and the viability at 0.1 µM [3] was 95.7%. The viability at 10 µM [4] was 99.9%, the hemolysis at 10 min, 0.19 µM [5] was 100% and the IC50 [6] was 55 µM. It also gave a viability at 0.1 µM [7] of 110%, a viability at 10 µM [8] of 115% and a viability at 50 µM [9] of 1.7%. It also gave a viability at 1 µM [10] of 121%, a viability at 10 µM [11] of 121% and a viability at 1 µM [12] of 117%. The viability at 10 µM [13] was 106%, the viability at 0.1 µM [14] was 129% and the viability at 10 µM [15] was 99%. It also gave a viability at 100 µM [16] of 1.1%, a hemolysis at 0.25 µM [17] of 17% and a viability at 100 µM [18] of 5.2%. The viability at 1 µM [19] was 113%, the viability at 100 µM [20] was 14.4% and the viability at 50 µM [21] was 59.4%. It also gave an HC50 at 5 min [22] of 80 nM, an IC50 [23] of 35 µM and a viability at 100 µM [24] of 2.9%. It also gave a viability at 50 µM [25] of 1.2%, a viability at 10 µM [26] of 107% and a viability at 50 µM [27] of 2.5%. It also gave a viability at 1 µM [28] of 102%, an IC50 [29] of 35 µM and a viability at 50 µM [30] of 6.1%. For the same molecule, the IC50 [31] was 35 µM, the viability at 1 µM [32] was 119% and the HC50 at 10 min [33] was 140 nM. The viability at 1 µM [34] was 97.8%, the IC50 [35] was 35 µM and the IC50 [36] was 35 µM. The viability at 100 µM [37] was 7.8%, the viability at 100 µM [38] was 3.3% and the viability at 100 µM [39] was 1.6%. It also gave a viability at 0.1 µM [40] of 118%, a viability at 50 µM [41] of 6.3% and a viability at 50 µM [42] of 58.7%. The viability at 1 µM [43] was 101%, the viability at 0.1 µM [44] was 102% and the viability at 10 µM [45] was 113%. For the same molecule, the viability at 100 µM [46] was 1.7%, the viability at 0.1 µM [47] was 98.8% and the viability at 10 µM [48] was 98.4%. It also gave an IC50 [49] of 35 µM, a viability at 1 µM [50] of 114% and an IC50 [51] of 35 µM.

— ChEMBL document CHEMBL1141575, “Preparation and in vitro biological evaluation of tetrapyrrole ethanolamide derivatives as potential anticancer agents” (Bioorg Med Chem Lett, 2008)
